Measured values from patent publication US20260356809A1 (The United States of America, as represented by the …, priority 2022, published 2026).
Read-outs that look alike come from different tables or passages of the source. Each block holds one compound with its values, some of them ahead of it.

Tests used:
5-HT2C [1] = target: T1, 5-HT2C (Homo sapiens, UniProt P28335); experiment: 5-HT2C IP-1, agonist; format: cell-based
T1 sequence (P28335 33-458): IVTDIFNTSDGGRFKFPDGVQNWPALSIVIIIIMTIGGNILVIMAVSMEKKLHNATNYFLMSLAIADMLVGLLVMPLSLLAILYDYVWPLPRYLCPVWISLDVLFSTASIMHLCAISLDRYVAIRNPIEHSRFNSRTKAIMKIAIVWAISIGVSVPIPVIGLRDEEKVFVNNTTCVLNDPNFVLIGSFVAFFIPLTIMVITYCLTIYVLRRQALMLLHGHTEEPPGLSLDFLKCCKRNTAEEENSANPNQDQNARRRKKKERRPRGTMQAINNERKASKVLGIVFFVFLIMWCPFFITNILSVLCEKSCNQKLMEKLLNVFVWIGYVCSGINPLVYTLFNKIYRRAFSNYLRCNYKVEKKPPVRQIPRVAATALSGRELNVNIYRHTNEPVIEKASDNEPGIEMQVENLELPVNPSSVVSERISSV

5-HT2A [2] = target: T2, 5-HT2A (Homo sapiens, UniProt P28223); format: cell-based; details: antagonist mode
T2 sequence (P28223 whole entry, species assumed): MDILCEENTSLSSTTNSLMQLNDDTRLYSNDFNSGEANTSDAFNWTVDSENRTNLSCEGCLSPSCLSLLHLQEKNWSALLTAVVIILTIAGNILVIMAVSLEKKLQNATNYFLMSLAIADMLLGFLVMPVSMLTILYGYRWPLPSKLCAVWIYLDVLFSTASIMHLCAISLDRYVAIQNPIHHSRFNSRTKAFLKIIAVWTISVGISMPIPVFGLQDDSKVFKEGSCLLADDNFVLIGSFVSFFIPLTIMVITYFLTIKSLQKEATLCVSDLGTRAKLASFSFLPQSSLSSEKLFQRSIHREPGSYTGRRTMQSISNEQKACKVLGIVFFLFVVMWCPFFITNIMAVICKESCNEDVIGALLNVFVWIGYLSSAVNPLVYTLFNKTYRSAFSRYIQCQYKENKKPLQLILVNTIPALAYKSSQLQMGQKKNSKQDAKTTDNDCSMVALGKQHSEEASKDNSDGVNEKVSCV

5-HT2B [3] = target: T3, 5-HT2B (Homo sapiens, UniProt P41595); experiment: 5-HT2B IP-1, agonist; format: cell-based; details: agonist mode; for EC50: read-out: 5-HT2B IP-1 EC50 ± SEM
T3 sequence (P41595 whole entry, species assumed): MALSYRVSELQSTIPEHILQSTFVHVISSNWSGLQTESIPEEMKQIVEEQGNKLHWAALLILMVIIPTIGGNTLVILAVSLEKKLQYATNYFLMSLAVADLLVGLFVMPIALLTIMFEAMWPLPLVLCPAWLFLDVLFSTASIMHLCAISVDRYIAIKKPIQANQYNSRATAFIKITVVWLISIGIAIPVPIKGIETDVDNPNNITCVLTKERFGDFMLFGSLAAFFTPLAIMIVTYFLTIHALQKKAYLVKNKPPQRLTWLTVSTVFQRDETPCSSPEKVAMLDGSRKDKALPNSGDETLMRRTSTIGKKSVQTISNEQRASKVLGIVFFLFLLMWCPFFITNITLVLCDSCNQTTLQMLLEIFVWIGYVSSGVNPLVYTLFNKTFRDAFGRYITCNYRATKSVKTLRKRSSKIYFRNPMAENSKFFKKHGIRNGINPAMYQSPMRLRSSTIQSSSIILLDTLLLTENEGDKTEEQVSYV

5-HT2B [4] = target: T3, 5-HT2B; experiment: 5-HT2B IP-1, antagonist; format: cell-based
5-HT2A [5] = target: T2, 5-HT2A; experiment: 5-HT2A IP-1, agonist; format: cell-based; details: agonist mode
D2LR [6] = target: T4, D2LR (Homo sapiens, UniProt P14416); format: cell-based; details: GPA GαoA assay
T4 construct: expressed in transfected cells; host or cells: HEK 293T, transient
T4 sequence (P14416 whole entry): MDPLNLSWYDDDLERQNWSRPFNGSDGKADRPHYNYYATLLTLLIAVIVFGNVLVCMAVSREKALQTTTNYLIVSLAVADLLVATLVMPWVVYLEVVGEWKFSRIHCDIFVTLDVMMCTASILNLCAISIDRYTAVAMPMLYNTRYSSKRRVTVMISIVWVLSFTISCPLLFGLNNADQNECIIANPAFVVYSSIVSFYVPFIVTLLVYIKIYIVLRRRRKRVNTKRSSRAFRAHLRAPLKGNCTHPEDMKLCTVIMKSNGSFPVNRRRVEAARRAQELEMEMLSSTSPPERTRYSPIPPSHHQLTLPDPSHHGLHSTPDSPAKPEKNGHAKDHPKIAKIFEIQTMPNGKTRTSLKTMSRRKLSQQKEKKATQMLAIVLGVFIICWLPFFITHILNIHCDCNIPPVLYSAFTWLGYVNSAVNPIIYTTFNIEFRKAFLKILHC

D2LR [7] = target: T4, D2LR; format: cell-based; details: miniG recruitment assay
5-HT2B [8] = target: T3, 5-HT2B; experiment: 5-HT2B off-target binding, [3H]5-HT; details: read-out: 5-HT2B Ki ± SEM
D4R = target: T5, D4R (Homo sapiens, UniProt P21917); experiment: D4R off-target binding, [3H]-spiperone; details: read-out: D4R Ki ± SEM
T5 sequence (P21917 1-419): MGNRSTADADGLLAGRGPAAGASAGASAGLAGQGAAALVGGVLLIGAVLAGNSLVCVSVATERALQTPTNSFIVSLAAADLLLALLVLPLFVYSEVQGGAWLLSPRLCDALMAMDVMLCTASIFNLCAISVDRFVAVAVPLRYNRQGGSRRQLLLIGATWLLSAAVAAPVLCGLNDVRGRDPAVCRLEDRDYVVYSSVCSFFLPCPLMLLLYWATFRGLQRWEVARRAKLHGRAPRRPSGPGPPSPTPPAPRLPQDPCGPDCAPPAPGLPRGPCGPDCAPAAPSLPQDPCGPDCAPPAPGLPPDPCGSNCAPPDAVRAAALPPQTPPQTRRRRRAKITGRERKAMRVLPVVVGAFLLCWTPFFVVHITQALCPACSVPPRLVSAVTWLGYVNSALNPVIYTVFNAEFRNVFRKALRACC

5-HT1A [9] = target: T6, 5-HT1A (Homo sapiens, UniProt P08908); experiment: 5-HT1A off-target binding, [3H]-8-OH-DPAT; details: read-out: 5-HT1A Ki ± SEM
T6 sequence (P08908 1-422): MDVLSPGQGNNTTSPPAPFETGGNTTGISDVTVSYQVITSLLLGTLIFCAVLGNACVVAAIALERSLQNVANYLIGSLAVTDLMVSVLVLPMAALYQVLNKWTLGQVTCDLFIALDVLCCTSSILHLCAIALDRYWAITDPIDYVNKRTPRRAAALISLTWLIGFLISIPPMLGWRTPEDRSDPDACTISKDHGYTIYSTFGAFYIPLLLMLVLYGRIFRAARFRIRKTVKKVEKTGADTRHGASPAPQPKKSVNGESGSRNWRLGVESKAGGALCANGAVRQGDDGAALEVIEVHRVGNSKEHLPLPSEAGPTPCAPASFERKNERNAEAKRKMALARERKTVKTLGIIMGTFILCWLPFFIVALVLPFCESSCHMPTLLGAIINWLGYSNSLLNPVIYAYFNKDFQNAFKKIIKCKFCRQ

5-HT1A [10] = target: T6, 5-HT1A; experiment: 5-HT1A [35S]GTPγS, agonist; format: biochemical
human D2L receptor = target: T7, human D2L receptor (Homo sapiens, UniProt P14416); experiment: D2R radioligand binding, [3H]N-methylspiperone, HEK293 membranes
T7 construct: expressed in transfected cells
T7 sequence (P14416 whole entry): as the sequence (P14416 whole entry) above

human D3 receptor = target: T8, human D3 receptor (Homo sapiens, UniProt P35462); experiment: D3R radioligand binding, [3H]N-methylspiperone, HEK293 membranes; details: for D2R Ki / D3R Ki: ratio of Ki values
T8 construct: expressed in transfected cells
T8 sequence (P35462 whole entry): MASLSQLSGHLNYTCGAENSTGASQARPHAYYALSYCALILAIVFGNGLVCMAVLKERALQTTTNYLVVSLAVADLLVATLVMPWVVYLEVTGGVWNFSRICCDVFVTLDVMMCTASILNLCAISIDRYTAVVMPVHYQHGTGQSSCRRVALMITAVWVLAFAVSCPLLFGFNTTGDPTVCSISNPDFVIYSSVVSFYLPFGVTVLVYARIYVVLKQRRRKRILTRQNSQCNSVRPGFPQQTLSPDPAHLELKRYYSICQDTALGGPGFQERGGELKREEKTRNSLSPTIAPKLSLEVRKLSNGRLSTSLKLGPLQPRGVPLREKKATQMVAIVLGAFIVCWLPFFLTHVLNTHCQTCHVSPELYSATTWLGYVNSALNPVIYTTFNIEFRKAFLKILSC

[11] = test system: cocaine self-administration in rats; details: general knowledge statement; cited from earlier work
5-HT2C [12] = target: T1, 5-HT2C; experiment: 5-HT2C IP-1, antagonist; format: cell-based
[13] = test system: cocaine self-administration in rats; experiment: cocaine self-administration under progressive ratio (PR) break-point; format: in vivo, Long-Evans rats; details: i.p. 30 min prior
[14] = [3H]N-methylspiperone, mean ± SEM of at least three experiments, read-out: D3R Ki ± SEM

Ki (human D2L receptor; read-out: D2R Ki ± SEM): 3.72 ± 0.02 nM
Ki (human D3 receptor; [14]): 0.323 ± 0.075 nM
D2R Ki / D3R Ki (human D3 receptor; [3H]N-methylspiperone): 11.5
Compound: COC(=O)N[C@H]1CC[C@H](CCN2CCN(c3cccc(Cl)c3Cl)CC2)CC1 [Compound 14a, Methyl (trans-4-(2-(4-(2,3-dichlorophenyl)piperazin-1-yl)ethyl)cyclohexyl)carbamate]

Ki (human D2L receptor; read-out: D2R Ki ± SEM): 3.72 ± 0.46 nM
Ki (human D3 receptor; [14]): 0.398 ± 0.084 nM
Compound: CN(C)CC(=O)N[C@H]1CC[C@H](CCN2CCN(c3cccc(Cl)c3Cl)CC2)CC1 [Compound 14g, N-(trans-4-(2-(4-(2,3-dichlorophenyl)piperazin-1-yl)ethyl)cyclohexyl)-2-(dimethylamino)acetamide]

Ki (human D2L receptor; read-out: D2R Ki ± SEM): 21.7 ± 3.8 nM
Ki (human D3 receptor; [14]): 1.15 ± 0.29 nM
D2R Ki / D3R Ki (human D3 receptor; [3H]N-methylspiperone): 18.9
Compound: COCCCC(=O)N[C@H]1CC[C@H](CCN2CCN(c3cccc(Cl)c3Cl)CC2)CC1 [Compound 14f, N-(trans-4-(2-(4-(2,3-Dichlorophenyl)piperazin-1-yl)ethyl)cyclohexyl)-4-methoxybutanamide]

Ki (human D2L receptor; read-out: D2R Ki ± SEM): 4.49 ± 0.78 nM
Ki (human D3 receptor; [14]): 0.537 ± 0.167 nM
Compound: O=C1CCCN1[C@H]1CC[C@H](CCN2CCN(c3cccc(Cl)c3Cl)CC2)CC1 [Compound 36a, 1-(trans-4-(2-(4-(2,3-Dichlorophenyl)piperazin-1-yl)ethyl)cyclohexyl)100yrrolidine-2-one]

Ki (human D2L receptor; read-out: D2R Ki ± SEM): 19 ± 4.7 nM
Ki (human D3 receptor; [14]): 2.97 ± 0.85 nM
Compound: O=C1NCCCN1[C@H]1CC[C@H](CCN2CCN(c3cccc(Cl)c3Cl)CC2)CC1 [Compound 35b, 1-(trans-4-(2-(4-(2,3-Dichlorophenyl)piperazin-1-yl)ethyl)cyclohexyl)tetrahydropyrimidin-2(1H)-one]

Continued, compound first:

Compound: CCc1cccc(N2CCN(CC[C@H]3CC[C@H](NC(=O)CCOC)CC3)CC2)c1Cl [Compound 13b, N-(trans-4-(2-(4-(2-Chloro-3-ethylphenyl)piperazin-1-yl)ethyl)cyclohexyl)-3-methoxypropanamide]
EC50 (5-HT2C [1]): 43.5 ± 5.3 nM
5-HT2A IP-1 Emax ± SEM (5-HT2A [2]): 62.7 ± 5.8%
5-HT2B IP-1 Emax ± SEM (5-HT2B [3]): <1%
5-HT2B IP-1 Emax ± SEM (5-HT2B [4]; antagonist mode): 100 ± 0%
5-HT2A IP-1 Emax ± SEM (5-HT2A [5]): 25.9 ± 1.9%

Compound: COCCC(=O)N[C@H]1CC[C@H](CCN2CCN(c3cccc(OC)c3F)CC2)CC1 [Compound 13c, N-(trans-4-(2-(4-(2-Fluoro-3-methoxyphenyl)piperazin-1-yl)ethyl)cyclohexyl)-3-methoxypropanamide]
D2R activity in words, GPA assay (D2LR [6]): full agonists
D2R activity in words, miniG assay (D2LR [7]): full agonists
Ki (5-HT2B [8]): 29.6 ± 9.5 nM
Ki (D4R): 734 ± 16 nM
Ki (5-HT1A [9]): 69.9 ± 1.7 nM
5-HT2B IP-1 Emax ± SEM (5-HT2B [3]): <1%
EC50 (5-HT2B [3]): > 10000 nM
EC50 (5-HT1A [10]): 121 ± 10 nM
IC50 (5-HT2B [4]): 519 ± 81 nM
5-HT2B IP-1 Emax ± SEM (5-HT2B [4]; antagonist mode): 82 ± 18%

Compound: COCCC(=O)N[C@H]1CC[C@H](CCN2CCN(c3cccc(C(F)(F)F)n3)CC2)CC1 [Compound 13d]
5-HT2B IP-1 Emax ± SEM (5-HT2B [3]): 6.66 ± 0.91%
EC50 (5-HT2B [3]): 37 ± 10 nM
5-HT2B IP-1 Emax ± SEM (5-HT2B [4]): 95.6 ± 2.0%
IC50 (5-HT2B [4]; read-out: 5-HT2B IP-1 IC50 ± SEM): 460 ± 100 nM

Compound: NCCc1ccc(O)c(O)c1 [Dopamine, dopamine, reference compound]
D2R activity in words, miniG assay (D2LR [7]): equivalent maximal responses

Compound: CN(C)C(=O)N[C@H]1CC[C@H](CCN2CCN(c3nsc4ccccc34)CC2)CC1 [Compound 6i, 3-(trans-4-(2-(4-(Benzo[d]isothiazol-3-yl)piperazin-1-yl)ethyl)cyclohexyl)-1,1-dimethylurea]
Ki (human D2L receptor): 4.43 ± 0.38 nM
Ki (human D3 receptor): 4.17 ± 0.33 nM
D2R Ki / D3R Ki (human D3 receptor; [3H]N-methylspiperone): 1.1

Compound: CN(C)C(=O)N[C@H]1CC[C@H](CCN2CCC(c3noc4cc(F)ccc34)CC2)CC1 [Compound 6j, 3-(trans-4-(2-(4-(6-Fluorobenzo[d]isoxazol-3-yl)piperidin-1-yl)ethyl)cyclohexyl)-1,1-dimethylurea]
Ki (human D2L receptor): 5.26 ± 1.56 nM
Ki (human D3 receptor): 5.37 ± 0.72 nM
D2R Ki / D3R Ki (human D3 receptor; [3H]N-methylspiperone): 1.0

Compound: CN(C)C(=O)N[C@H]1CC[C@H](CCN2CCN(c3ccc4oc(C(N)=O)cc4c3)CC2)CC1 [Compound 6k, 5-(4-(2-(trans-4-(3,3-Dimethylureido)cyclohexyl)ethyl)piperazin-1-yl)benzofuran-2-carboxamide]
Ki (human D2L receptor): 61100 ± 35100 nM
Ki (human D3 receptor): 1460 ± 270 nM
D2R Ki / D3R Ki (human D3 receptor; [3H]N-methylspiperone): 41.9

Compound: (+)-butaclamol
biphasic effects on cocaine self-administration [11]: biphasic effects

Compound: COc1ccccc1N1CCN(CC[C@H]2CC[C@H](NC(=O)N(C)C)CC2)CC1 [Compound 6f, 3-(trans-4-(2-(4-(2-Methoxyphenyl)piperazin-1-yl)ethyl)cyclohexyl)-1,1-dimethylurea]
Ki (human D2L receptor): 6.07 ± 2.32 nM
Ki (human D3 receptor): 1.01 ± 0.32 nM
D2R Ki / D3R Ki (human D3 receptor; [3H]N-methylspiperone): 6.0

Compound: O=c1[nH]c2ccccc2n1C1CCN(CCCC(c2ccc(F)cc2)c2ccc(F)cc2)CC1 [pimozide]
biphasic effects on cocaine self-administration [11]: biphasic effects

Compound: CN(C)C(=O)N[C@H]1CC[C@H](CCN2CCN(c3cccc(Cl)c3Cl)CC2)CC1 [Compound 6a, 3-(trans-4-(2-(4-(2,3-Dichlorophenyl)piperazin-1-yl)ethyl)cyclohexyl)-1,1-dimethylurea]
D2R activity in words, GPA assay (D2LR [6]): maximal effect similar to quinpirole
D2R activity in words, miniG assay (D2LR [7]): D2R partial agonists
IC50 (5-HT2C [12]): > 5000 nM
5-HT2C IP-1 Emax ± SEM (5-HT2C [12]; antagonist mode): 9.2 ± 2.7%
5-HT2C IP-1 Emax ± SEM (5-HT2C [1]; agonist mode): 49.2 ± 6.6%
EC50 (5-HT2C [1]; agonist mode, read-out: 5-HT2C IP-1 EC50 ± SEM): 215 ± 22 nM
effect on lever pressing / PR break-point for cocaine [13]: reduce the reinforcing efficacy of cocaine
5-HT1A [35S]GTPγS Emax ± SEM (5-HT1A [10]; agonist mode): 89.6 ± 3.6%
